Source: ChEMBL document CHEMBL3885881, “DrugMatrix”

Species: Rattus norvegicus
Assay: DrugMatrix - Regimen: Daily Repeat
Type: toxicity, organism-based, Sprague-Dawley
Design: regimen Daily Repeat, gender Male, age 6-8 weeks
Settings: in vivo, po, route oral GAVAGE, […]; for ABSOLUTE BASOPHIL / ABSOLUTE EOSINOPHIL / ABSOLUTE LYMPHOCYTE / ABSOLUTE MONOCYTE / ABSOLUTE SEGMENTED NEUTROPHIL / BASOPHIL / EOSINOPHIL / ERYTHROCYTE COUNT / HEMATOCRIT / HEMOGLOBIN / LEUKOCYTE COUNT / LYMPHOCYTE / MEAN CORPUSCULAR HEMOGLOBIN / MEAN CORPUSCULAR HEMOGLOBIN CONCENTRATION / MEAN CORPUSCULAR VOLUME / MONOCYTE / NEUTROPHIL / NUCLEATED RED BLOOD CELLS / PLATELET COUNT: tissue Blood; for ALANINE AMINOTRANSFERASE / ALBUMIN / ALKALINE PHOSPHATASE / ASPARTATE AMINOTRANSFERASE / BLOOD UREA NITROGEN / CARBON DIOXIDE / CHLORIDE / CHOLESTEROL / CREATINE PHOSPHOKINASE / CREATININE / GLUCOSE / LACTATE DEHYDROGENASE / LIPASE / PHOSPHORUS / POTASSIUM / SODIUM / TOTAL BILIRUBIN / TOTAL PROTEIN / URIC ACID: tissue Plasma
[1] = 1 mg/kg, 120 h, dose level Low, time 5 day
[2] = 14 mg/kg, 72 h, dose level High, time 3 day
[3] = 14 mg/kg, 120 h, dose level High, time 5 day

Structure (SMILES): CCOC(=O)C1=C(C)NC(C)=C(C(=O)OCC)C1c1ccccc1/C=C/C(=O)OC(C)(C)C [LACIDIPINE]
- ABSOLUTE BASOPHIL [1]: 0 CELLS/uL
- ABSOLUTE EOSINOPHIL [1]: 0 CELLS/uL
- ABSOLUTE LYMPHOCYTE [1]: 13674 CELLS/uL
- ABSOLUTE MONOCYTE [1]: 253 CELLS/uL
- ABSOLUTE SEGMENTED NEUTROPHIL [1]: 1206.33 CELLS/uL
- BASOPHIL [1]: 0%
- EOSINOPHIL [1]: 0%
- ERYTHROCYTE COUNT [1]: 6.05 x10E6/uL
- HEMATOCRIT [1]: 38.43%
- HEMOGLOBIN [1]: 15 G/DL
- LEUKOCYTE COUNT [1]: 15.13 x10E3/uL
- LYMPHOCYTE [1]: 90.33%
- MEAN CORPUSCULAR HEMOGLOBIN [1]: 24.8 pg
- MEAN CORPUSCULAR HEMOGLOBIN CONCENTRATION [1]: 39.07 G/DL
- MEAN CORPUSCULAR VOLUME [1]: 63.47 fL
- MONOCYTE [1]: 1.67%
- NEUTROPHIL [1]: 8%
- NUCLEATED RED BLOOD CELLS [1]: 0.33 /100WBC
- PLATELET COUNT [1]: 1182 x10E3/uL
- ALANINE AMINOTRANSFERASE [1]: 60.33 u/L
- ALBUMIN [1]: 4.13 G/DL
- ALKALINE PHOSPHATASE [1]: 378.33 u/L
- ASPARTATE AMINOTRANSFERASE [1]: 70.67 u/L
- BLOOD UREA NITROGEN [1]: 12.67 mg/dL
- CARBON DIOXIDE [1]: 30 mmol/L
- CHLORIDE [1]: 99.67 MEQ/L
- CHOLESTEROL [1]: 69 mg/dL
- CREATINE PHOSPHOKINASE [1]: 271.67 u/L
- CREATININE [1]: 0.17 mg/dL
- GLUCOSE [1]: 166.33 mg/dL
- LACTATE DEHYDROGENASE [1]: 125.67 u/L
- LIPASE [1]: 10 u/L
- PHOSPHORUS [1]: 10.93 mg/dL
- POTASSIUM [1]: 6.75 MEQ/L
- SODIUM [1]: 141.97 MEQ/L
- TOTAL BILIRUBIN [1]: 0.17 mg/dL
- TOTAL PROTEIN [1]: 5.83 G/DL
- URIC ACID [1]: 1.9 mg/dL
- ABSOLUTE BASOPHIL [2]: 0 CELLS/uL
- ABSOLUTE EOSINOPHIL [2]: 0 CELLS/uL
- ABSOLUTE LYMPHOCYTE [2]: 6598.33 CELLS/uL
- ABSOLUTE MONOCYTE [2]: 95.33 CELLS/uL
- ABSOLUTE SEGMENTED NEUTROPHIL [2]: 673 CELLS/uL
- BASOPHIL [2]: 0%
- EOSINOPHIL [2]: 0%
- ERYTHROCYTE COUNT [2]: 6.39 x10E6/uL
- HEMATOCRIT [2]: 38.67%
- HEMOGLOBIN [2]: 15.2 G/DL
- LEUKOCYTE COUNT [2]: 7.37 x10E3/uL
- LYMPHOCYTE [2]: 89.67%
- MEAN CORPUSCULAR HEMOGLOBIN [2]: 23.8 pg
- MEAN CORPUSCULAR HEMOGLOBIN CONCENTRATION [2]: 39.33 G/DL
- MEAN CORPUSCULAR VOLUME [2]: 60.53 fL
- MONOCYTE [2]: 1.33%
- NEUTROPHIL [2]: 9%
- NUCLEATED RED BLOOD CELLS [2]: 0.33 /100WBC
- PLATELET COUNT [2]: 1020.33 x10E3/uL
- ALANINE AMINOTRANSFERASE [2]: 81.67 u/L
- ALBUMIN [2]: 4 G/DL
- ALKALINE PHOSPHATASE [2]: 315.33 u/L
- ASPARTATE AMINOTRANSFERASE [2]: 94 u/L
- BLOOD UREA NITROGEN [2]: 9.33 mg/dL
- CARBON DIOXIDE [2]: 25 mmol/L
- CHLORIDE [2]: 94.33 MEQ/L
- CHOLESTEROL [2]: 62.33 mg/dL
- CREATINE PHOSPHOKINASE [2]: 287 u/L
- CREATININE [2]: 0.4 mg/dL
- GLUCOSE [2]: 140 mg/dL
- LACTATE DEHYDROGENASE [2]: 223.33 u/L
- LIPASE [2]: 9.67 u/L
- PHOSPHORUS [2]: 8.63 mg/dL
- POTASSIUM [2]: 4.28 MEQ/L
- SODIUM [2]: 137.47 MEQ/L
- TOTAL BILIRUBIN [2]: 0.2 mg/dL
- TOTAL PROTEIN [2]: 5.47 G/DL
- URIC ACID [2]: 0.53 mg/dL
- ABSOLUTE BASOPHIL [3]: 0 CELLS/uL
- ABSOLUTE EOSINOPHIL [3]: 59.67 CELLS/uL
- ABSOLUTE LYMPHOCYTE [3]: 14336 CELLS/uL
- ABSOLUTE MONOCYTE [3]: 190.33 CELLS/uL
- ABSOLUTE SEGMENTED NEUTROPHIL [3]: 2280.67 CELLS/uL
- BASOPHIL [3]: 0%
- EOSINOPHIL [3]: 0.33%
- ERYTHROCYTE COUNT [3]: 6.95 x10E6/uL
- HEMATOCRIT [3]: 41.6%
- HEMOGLOBIN [3]: 16.07 G/DL
- LEUKOCYTE COUNT [3]: 16.87 x10E3/uL
- LYMPHOCYTE [3]: 85.33%
- MEAN CORPUSCULAR HEMOGLOBIN [3]: 23.17 pg
- MEAN CORPUSCULAR HEMOGLOBIN CONCENTRATION [3]: 38.67 G/DL
- MEAN CORPUSCULAR VOLUME [3]: 59.9 fL
- MONOCYTE [3]: 1%
- NEUTROPHIL [3]: 13.33%
- NUCLEATED RED BLOOD CELLS [3]: 0 /100WBC
- PLATELET COUNT [3]: 1126 x10E3/uL
- ALANINE AMINOTRANSFERASE [3]: 90.33 u/L
- ALBUMIN [3]: 4.47 G/DL
- ALKALINE PHOSPHATASE [3]: 262.33 u/L
- ASPARTATE AMINOTRANSFERASE [3]: 95.67 u/L
- BLOOD UREA NITROGEN [3]: 10.33 mg/dL
- CARBON DIOXIDE [3]: 25.33 mmol/L
- CHLORIDE [3]: 97.67 MEQ/L
- CHOLESTEROL [3]: 58.67 mg/dL
- CREATINE PHOSPHOKINASE [3]: 234.67 u/L
- CREATININE [3]: 0.14 mg/dL
- GLUCOSE [3]: 154.67 mg/dL
- LACTATE DEHYDROGENASE [3]: 217 u/L
- LIPASE [3]: 9.33 u/L
- PHOSPHORUS [3]: 11.23 mg/dL
- POTASSIUM [3]: 4.62 MEQ/L
- SODIUM [3]: 138.03 MEQ/L
- TOTAL BILIRUBIN [3]: 0.33 mg/dL
- TOTAL PROTEIN [3]: 5.93 G/DL
- URIC ACID [3]: 1.6 mg/dL
